# Test results taken from patent publication US20190071416A1, “COMPOUNDS FOR TREATMENT OF CANCER AND EPIGENETICS” (Agency For Science, Technology and Research, priority 2015, published 2019).
# pIC50: −log10 of the molar value.
# Target: T1, SMYD3 (Homo sapiens, UniProt Q9H7B4)
# T1 sequence (Q9H7B4 1-428): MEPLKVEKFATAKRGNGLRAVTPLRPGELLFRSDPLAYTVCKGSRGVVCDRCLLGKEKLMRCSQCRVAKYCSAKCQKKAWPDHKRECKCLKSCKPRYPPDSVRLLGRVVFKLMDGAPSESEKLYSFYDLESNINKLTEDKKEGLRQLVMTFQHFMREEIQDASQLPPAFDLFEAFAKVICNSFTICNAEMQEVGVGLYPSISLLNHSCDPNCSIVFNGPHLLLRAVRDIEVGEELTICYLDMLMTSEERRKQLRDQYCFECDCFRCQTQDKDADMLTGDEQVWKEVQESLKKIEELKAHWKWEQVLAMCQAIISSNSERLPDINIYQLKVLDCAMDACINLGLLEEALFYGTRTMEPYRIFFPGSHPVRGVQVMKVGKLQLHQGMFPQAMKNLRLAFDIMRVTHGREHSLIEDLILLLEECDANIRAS
# Test: SMYD3 biochemical assay (MTase-Glo, MAP3K2 peptide substrate)
# Conditions: Table 3; MTase assay, MAP3K2 peptide substrate; read-out: IC50
# How it was run: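 Methylation of MAP3K2 peptide (10 µM final) with SAM (1.0 µM final) by SMYD3, 30 min at room temperature. SAH formed was enzymatically converted to ATP and detected as luminescence with MTase-Glo reagents; IC50 by non-linear regression.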
row,pIC50,Structure (SMILES)
1,6.85,"CCCOC(=O)N1CCN(C(=O)c2ccc3c(Cl)cc(-c4cc(C)c5[nH]ncc5c4)nc3c2)CC1 [B186, Propyl 4-(4-chloro-2-(7-methyl-1H-indazol-5-yl)quinoline-7-carbonyl)piperazine-1-carboxylate]"
2,5.12,"CCCOC(=O)N1CCN(C(=O)c2ccc3c(Cl)cc(-c4ccnn4C)nc3c2)[C@@H](C)C1 [B091, Propyl (S)-4-(4-chloro-2-(1-methyl-1H-pyrazol-5-yl)quinoline-7-carbonyl)-3-methylpiperazine-1-carboxylate]"
3,6.85,"CCCOC(=O)N1CCN(C(=O)c2ccc3c(Cl)cc(-c4ccc(O)c(CO)c4)nc3c2)C[C@@H]1C [B182, Propyl (S)-4-(4-chloro-2-(4-hydroxy-3-(hydroxymethyl)phenyl)quinoline-7-carbonyl)-2-methylpiperazine-1-carboxylate]"
4,6.60,"CCCOC(=O)N1CCN(C(=O)c2ccc3c(Cl)cc(-c4ccc(C(=O)NC)c(F)c4)nc3c2)[C@@H](C)C1 [B240, Propyl (S)-4-(4-chloro-2-(3-fluoro-4-(methylcarbamoyl)phenyl)quinoline-7-carbonyl)-3-methylpiperazine-1-carboxylate]"
5,5.57,"Cn1cc(-c2cc(Cl)c3ccc(C(=O)N4CCN(C(=O)OCCF)CC4)cc3n2)cn1 [B261, 2-Fluoroethyl 4-(4-chloro-2-(1-methyl-1H-pyrazol-4-yl)quinoline-7-carbonyl)piperazine-1-carboxylate]"
6,6.82,"CCCOC(=O)N1CCN(C(=O)c2ccc3c(Cl)cc(-c4ccc(O)cc4)nc3c2)[C@@H](C)C1 [B160, Propyl (S)-4-(4-chloro-2-(4-hydroxyphenyl)quinoline-7-carbonyl)-3-methylpiperazine-1-carboxylate]"
7,5.49,"CCCOC(=O)N1CCN(C(=O)c2ccc3c(Cl)c(C)c(-c4ccc(C(F)(F)F)cc4)nc3c2)CC1 [B020, Propyl 4-(4-chloro-3-methyl-2-(4-(trifluoromethyl)phenyl)quinoline-7-carbonyl)piperazine-1-carboxylate]"
8,6.70,"CCCOC(=O)N1CCN(C(=O)c2ccc3c(Cl)cc(-c4ccc5oc(C)nc5c4)nc3c2)CC1 [B237, Propyl 4-(4-chloro-2-(2-methylbenzo[d]oxazol-5-yl)quinoline-7-carbonyl)piperazine-1-carboxylate]"
9,6.07,"CCCOC(=O)N1CCN(C(=O)c2ccc3c(Cl)cc(-c4cc(F)c(CN)c(F)c4)nc3c2)CC1 [B258, Propyl 4-(2-(4-(aminomethyl)-3,5-difluorophenyl)-4-chloroquinoline-7-carbonyl)piperazine-1-carboxylate]"
10,6.17,"CCCOC(=O)N1CCN(C(=O)c2ccc3c(Cl)c(C)c(-c4ccc(C)cc4)nc3c2)[C@@H](C)C1 [B024, Propyl (S)-4-(4-chloro-3-methyl-2-(p-tolyl)quinoline-7-carbonyl)-3-methylpiperazine-1-carboxylate]"
11,6.72,"CCCOC(=O)N1CCN(C(=O)c2ccc3c(Cl)cc(-c4cc[nH]c4)nc3c2)CC1 [B209, Propyl 4-(4-chloro-2-(1H-pyrrol-3-yl)quinoline-7-carbonyl)piperazine-1-carboxylate]"
12,6.64,"CCCOC(=O)N1CCN(C(=O)c2ccc3c(Cl)cc(-c4ccc(C(=O)NC)c(F)c4)nc3c2)C[C@H]1C [B216, Propyl (R)-4-(4-chloro-2-(3-fluoro-4-(methylcarbamoyl)phenyl)quinoline-7-carbonyl)-2-methylpiperazine-1-carboxylate]"
13,7.16,"COc1ccc(-c2cc(Cl)c3ccc(C(=O)N4CCN(C(=O)c5cn(C6CC6)nn5)CC4)cc3n2)cc1CN [D014, (2-(3-(Aminomethyl)-4-methoxyphenyl)-4-chloroquinolin-7-yl)(4-(1-cyclopropyl-1H-1,2,3-triazole-4-carbonyl)piperazin-1-yl)methanone]"
14,6.82,"CCCOC(=O)N1CCN(C(=O)c2ccc3c(Cl)cc(-c4ccc5c(c4)CNC5=O)nc3c2)CC1 [B232, Propyl 4-(4-chloro-2-(1-oxoisoindolin-5-yl)quinoline-7-carbonyl)piperazine-1-carboxylate]"
15,6.66,"CCCOC(=O)N1CCN(C(=O)c2ccc3c(Cl)cc(-c4ccc(O)c(C)c4)nc3c2)C[C@H]1C [B218, Propyl (R)-4-(4-chloro-2-(4-hydroxy-3-methylphenyl)quinoline-7-carbonyl)-2-methylpiperazine-1-carboxylate]"
16,5.64,"CCCOC(=O)N1CCN(C(=O)c2ccc3c(Cl)cc(-c4ccc(F)c(C(=O)N(C)C)c4)nc3c2)CC1 [B154, Propyl 4-(4-chloro-2-(3-(dimethylcarbamoyl)-4-fluorophenyl)quinoline-7-carbonyl)piperazine-1-carboxylate]"
17,6.82,"CCCOC(=O)N1CCN(C(=O)c2ccc3c(Cl)cc(-c4ccc(OC)c(CO)c4)nc3c2)C[C@@H]1C [B171, Propyl (S)-4-(4-chloro-2-(3-(hydroxymethyl)-4-methoxyphenyl)quinoline-7-carbonyl)-2-methylpiperazine-1-carboxylate]"
18,6.46,"CCCOC(=O)N1CCN(C(=O)c2ccc3c(Cl)cc(-c4ccc5c(ccn5C)c4)nc3c2)CC1 [B140, Propyl 4-(4-chloro-2-(1-methyl-1H-indo1-5-yl)quinoline-7-carbonyl)piperazine-1-carboxylate]"
19,6.39,"CCCOC(=O)N1CCN(C(=O)c2ccc3c(Cl)cc(-c4ccccc4)nc3c2)CC1 [B002, Propyl 4-(4-chloro-2-phenylquinoline-7-carbonyl)piperazine-1-carboxylate]"
20,6.72,"CCCOC(=O)N1CCN(C(=O)c2ccc3c(Cl)cc(-c4ccc(N(C)C)cc4)nc3c2)[C@@H](C)C1 [B076, Propyl (S)-4-(4-chloro-2-(4-(dimethylamino)phenyl)quinoline-7-carbonyl)-3-methylpiperazine-1-carboxylate]"

# Continued, molecule first:
row,Structure (SMILES),pIC50
1,"CCCOC(=O)N1C2CC1CN(C(=O)c1ccc3c(Cl)c4c(nc3c1)CCCC4)C2 [A019, Propyl 3-(9-chloro-5,6,7,8-tetrahydroacridine-3-carbonyl)-3,6-diazabicyclo[3.1.1]heptane-6-carboxylate]",4.88
2,"CCCOC(=O)N1CCN(C(=O)c2ccc3c(Cl)c4c(nc3c2)CC(c2ccnc(C#N)c2)CC4)[C@@H](C)C1 (stereo partly drawn) [A143, Propyl (3S)-4-(9-chloro-6-(2-cyanopyridin-4-yl)-5,6,7,8-tetrahydroacridine-3-carbonyl)-3-methylpiperazine-1-carboxylate]",6.34
3,"CCCOC(=O)N1CCN(C(=O)c2ccc3c(Cl)c4c(nc3c2)CC(c2ccc(F)cn2)CC4)CC1 (centres unmarked) [A094, Propyl 4-(9-chloro-6-(5-fluoropyridin-2-yl)-5,6,7,8-tetrahydroacridine-3-carbonyl)piperazine-1-carboxylate]",6.85
4,"CCCOC(=O)N1CCN(C(=O)c2ccc3c(Cl)c4c(nc3c2)CC(c2cc(C)ccn2)CC4)CC1 (centres unmarked) [A132, Propyl 4-(9-chloro-6-(4-methylpyridin-2-yl)-5,6,7,8-tetrahydroacridine-3-carbonyl)piperazine-1-carboxylate]",6.68
5,"CCCOC(=O)N1C2CCC1CN(C(=O)c1ccc3c(Cl)c4c(nc3c1)CCCC4)C2 [A009, Propyl 3-(9-chloro-5,6,7,8-tetrahydroacridine-3-carbonyl)-3,8-diazabicyclo[3.2.1]octane-8-carboxylate]",6.44
6,"CCCOC(=O)N1CCN(C(=O)c2ccc3c(Cl)c4c(nc3c2)CC(c2ccnc(C#N)n2)CC4)CC1 (centres unmarked) [A148, Propyl 4-(9-chloro-6-(2-cyanopyrimidin-4-yl)-5,6,7,8-tetrahydroacridine-3-carbonyl)piperazine-1-carboxylate]",6.52
7,"CCCOC(=O)N1CCN(C(=O)c2ccc3c(Cl)c4c(nc3c2)CCC(Cc2noc(C)n2)C4)CC1 (centres unmarked) [A089, Propyl 4-(9-chloro-7-((5-methyl-1,2,4-oxadiazol-3-yl)methyl)-5,6,7,8-tetrahydroacridine-3-carbonyl)piperazine-1-carboxylate]",6.46
8,"CCCOC(=O)N1CCN(C(=O)c2ccc3c(Cl)c4c(nc3c2)CC(c2ccncc2)CC4)[C@@H](C)C1 (stereo partly drawn) [A092, Propyl (3S)-4-(9-chloro-6-(pyridin-4-yl)-5,6,7,8-tetrahydroacridine-3-carbonyl)-3-methylpiperazine-1-carboxylate]",6.96
9,"CCCOC(=O)N1CC(C)N(C(=O)c2ccc3c(Cl)c4c(nc3c2)CCCC4)C(C)C1 (centres unmarked) [A043, Propyl 4-(9-chloro-5,6,7,8-tetrahydroacridine-3-carbonyl)-3,5-dimethylpiperazine-1-carboxylate]",6.26
10,"CCCOC(=O)N1CCN(C(=O)c2ccc3c(Cl)c4c(nc3c2)CCCC4)CC1CC(=O)OC (centres unmarked) [A069, Propyl 4-(9-chloro-5,6,7,8-tetrahydroacridine-3-carbonyl)-2-(2-methoxy-2-oxoethyl)piperazine-1-carboxylate]",5.28
11,"CCCOC(=O)N1CCN(C(=O)c2ccc3c(Cl)c4c(nc3c2)CCC(C(=O)OC)C4)CC1 (centres unmarked) [A029, Methyl 9-chloro-6-(4-(propoxycarbonyl)piperazine-1-carbonyl)-1,2,3,4-tetrahydroacridine-2-carboxylate]",6.07
12,"CCCOC(=O)N1CCN(C(=O)c2ccc3c(Cl)c4c(nc3c2)CC(c2cc(C)ccn2)CC4)C[C@H]1C (stereo partly drawn) [A133, Propyl (2R)-4-(9-chloro-6-(4-methylpyridin-2-yl)-5,6,7,8-tetrahydroacridine-3-carbonyl)-2-methylpiperazine-1-carboxylate]",6.92
